# Patent US6440421B1, “Treatment of bone disorders with adrenomedullin or adrenomedullin agonists” (Auchkland Uniservices Limited, priority 1996, dated 2002)
# No end group written: not given here.
# Legend:
# [1] = tested on: fetal rat osteoblast-like cells; assay: Osteoblast proliferation assay, cell counts; type: cell-based; settings: for cell number relative to control osteoblasts: primary cultures of osteoblasts, final concentration of 1 nm
# Protocol: (§1) Osteoblasts were isolated by collagenase digestion from 20-day fetal rat calvariae. The calvariae were then treated twice with phosphate buffered saline (PBS; Gibco, Grand Island, N.Y.) containing 3 Mm […] (EDTA; Sigma Chemical Co., St. Louis, Mo.) for 15 minutes at 37° C. in a shaking water bath. After washing once in PBS, 3 ml of 1 mg/ml collagenase (Sigma Chemical Co.) was added to the calvariae for 10 minutes at 37° C. After discarding the supernatant, the calvariae were treated twice with 2 mg/ml collagenase (30 mins, 37° C.). The supernatants were then centrifuged and the cells washed in Dulbecco's Modified Eagle's Medium (DMEM; Gibco Labs, Grand Island, N.Y.) with 10% fetal calf serum (FCS), suspended in further DMEM/10% FCS, and placed in […] flasks. The cells were incubated under 5% CO2 and 95% air at 37° C.
# (§2) Confluence was reached by 5-6 days, at which time the cells were subcultured. After trypsinization using trypsin-EDTA (0.05%/0.53 […]; Gibco Labs, Grand Island, N.Y.), the cells were rinsed in Minimal Essential Medium (MEM; Gibco Labs) with 10% FCS and resuspended in MEM with 5% FCS, then seeded (10^5 cells/ml) in 24-well plates (0.5 ml cell suspension per well, i.e., 5×10^4 cells/well)
# (§3) Cell proliferation studies (i.e., cell counts and thymidine incorporation) were performed both in actively-growing and growth-arrested cell populations. To produce actively-growing cells, subconfluent populations (24 hrs after subculturing) were changed to fresh MEM which contained 1% FCS and the test compounds. To produce growth-arrested cells, subconfluent populations were changed to serum-free medium with 0.1% bovine serum albumin plus the test compounds.
# The effect of adrenomedullin on proliferation of fetal rat osteoblast-like cells was first assessed by the measurement of cell numbers. Cell counts were analyzed at 6, 24, and 48 hours after addition of the test compound or vehicle. The cell numbers were determined after removing cells from the wells by exposure to trypsin/EDTA (0.05%/0.53 Mm) for 5 minutes at 37° C. Counting was performed in a hemocytometer chamber. Results were expressed per well. […] This stimulation was maintained for at least 48 hours.
# [2] = tested on: fetal rat osteoblast-like cells; assay: DNA synthesis, [3H]-thymidine incorporation into osteoblasts; type: cell-based; settings: for thymidine incorporation: primary cultures of osteoblasts, 1 nm; for [3H]-thymidine incorporation: 10^−10M, 24 hours
# Protocol: as §1, §2, §3
# The effect of adrenomedullin on DNA synthesis in osteoblasts was then assessed by the measurement of [^3H]-thymidine incorporation into isolated fetal rat osteoblast-like cells. [^3H]-thymidine incorporation into actively-growing and growth-arrested cells was assessed by pulsing the cells with [^3H]-thymidine (1 μCi/ml) (Amersham, Arlington Heights, Ill.) two hours before the end of the experimental incubation. The experiment was terminated at 6, 24, or 48 hours by washing the cells in MEM with cold thymidine followed by 10% trichloroacetic acid. The precipitate was washed twice with ethanol:ether (3:1), and the wells were desiccated at room temperature. The residue was redissolved in 0.5 M KOH at 85° C. for 30 mins, neutralized with 1 M Hcl, and an aliquot counted for radioactivity. Results were expressed as cpm per well.
# neonatal mouse calvariae [3] = assay: Bone organ culture, bone resorption (45Ca release); type: cell-based; settings: 48 hours, concentrations of 10−7 M to 10^−10 M
# Protocol: (§4) Bone resorption studies were carried out in neonatal mouse calvariae as previously described (Reid, et al., Endocrinology 126:1416-1420 (1990)). Mice were injected subcutaneously with 5 μCi ^45Ca (Amersham) at 2 days of age, and hemi-calvariae were dissected out 4 days later. Hemi-calvariae were pre-incubated for 24 hours in medium 199 (Gibco BRL, Grand Island, N.Y.) with 0.1% bovine serum albumin, then changed to fresh medium containing adrenomedullin or control vehicle. Incubation was continued for a further 48 hours. In the last 4 hours of incubation [^3H]-thymidine was incorporated into the organ cultures as described previously (Lowe, et al., Calif. Tissue Int. 49-394-397 (1991)). There were 5-7 calvariae in each group.
# neonatal mouse calvariae [4] = assay: Bone organ culture, [3H]-thymidine incorporation; type: cell-based; settings: 48 hours, 10−7 M to 10^−10 M, same experiments
# Protocol: as §4
# adult mouse calvariae = assay: Local effects on bone histology in vivo, histomorphometry of hemicalvariae
# Protocol: The local effects of adrenomedullin on bone histology in vivo were assessed in adult mice using a previously described model (Cornish et al., Endocrinology 132:1359-1366, 1993). Sexually mature male ARC Swiss Webster mice aged between 40 and 50 days and weighing […] were given injections (25 μl) over the periosteum of the right hemicalvariae for 5 consecutive days. […] The animals were maintained on a low calcium diet (0.1%) from 5 days prior to the first injection. […] These doses were chosen based on experience with other bone-active peptides in this model. Animals in the control group (n=16) were injected with vehicle (water) only. All animals were sacrificed 1 week following the last injection. The study had the approval of the local institutional review board.
# The calvariae were dissected free of soft tissue, and gross morphology was assessed by examination of the intact calvariae under a dissection microscope. Bone tissue was fixed in 10% phosphate-buffered formalin, dehydrated in a graded series of ethanol solutions and embedded undecalcified in methyl methacrylate resin. Sections (4 μm thick) were cut on a Leitz rotary microtome (Leica Instruments, Nussloch, Germany) using a tungsten-carbide knife, then mounted on gelatin-coated slides and air-dried. The sections were stained with a Goldner tri-chrome stain and examined using an Olympus BX 50 microscope (Olympus Optical Co Ltd, Tokyo, Japan) which was attached to an Osteomeasure Image Analyzer (Osteometrics Inc., Atlanta, Ga.). Histomorphometric analyzes were made of three adjacent fields (using a 20× objective) in each hemicalvaria.
# The parameters assessed are as defined by the American Society for Bone and Mineral Research (Parfitt et al. J. Bone Miner. Res. 2:595-610, (1987)), and are expressed per mm of calvarial length. Osteoblasts were defined as cells immediately adjacent to osteoid. Osteoclast numbers included only multinucleated cells. The various surface estimates were based on measurements of both periosteal and intramembranous surfaces: those eroded by osteoclasts (eroded perimeter), those immediately adjacent to osteoclasts (osteoclast perimeter), and those immediately adjacent to osteoblasts (osteoblast perimeter). The precision of these histomorphometric measurements in these studies (expressed as coefficients of variation of paired. measurements) are as follows: mineralized bone area 1.3%, osteoid area 6.9%, osteoblast perimeter 6.8%, osteoblast number 1.7%, eroded perimeter 6.7%, osteoclast perimeter 7.9%, osteoclast number <1.0%, and calvarial length 0.2%. All measurements were made by one operator who was blinded to the treatment group of each bone.
# In the in vivo experiment, the primary end-point for each histomorphometric index was the determination of whether it was different in the injected right hemicalvaria from the contralateral, uninjected bone of the same animal. The absolute values of each histomorphometric index are presented for the injected and uninjected hemicalvariae by treatment group in Tables 1-3. […] Tables 1-3. Effects of Adrenomedullin on Histomorphometric Indices in Adult Mouse Calvariae in vivo*
# [5] = Injected hemicalvaria, Adrenomedullin 4 × 10^−10 mol, mean, per mm of calvarial length
# [6] = Uninjected hemicalvaria, Adrenomedullin 4 × 10^−10 mol, mean, per mm of calvarial length
# [7] = in the presence of adrenomedullin
substance,measurement,setting,value
"ADM(28-40) (HQIYQFTDKDKDN; listed as Homo sapiens) [adrenomedullin fragment, residues 28-40]",cell number relative to control osteoblasts,[1],statistically significant increase
same,thymidine incorporation,[2],increased
"ADM(32-52) (QFTDKDKDNVAPRSKISPQGY; listed as Homo sapiens) [adrenomedullin fragment, residues 32-52]",cell number relative to control osteoblasts,[1],statistically significant increase
same,thymidine incorporation,[2],increased
adrenomedullin,duration for which stimulation of cell number was maintained,"[1]; 1% FCS, actively-growing cells",at least 48 hours
same,adrenomedullin concentration at which a significant increase in cell number was observed,"[1]; 24 hours, 1% FCS, actively-growing cells",≥ 10^−12 M
same,increase in actively-growing osteoblasts (cell number),"[1]; 24 hours, medium containing 1% FCS, actively-growing cells",dose-dependent increase
same,[3H]-thymidine incorporation,[2]; actively-growing cells,significantly stimulated
same,[3H]-thymidine incorporation,[2]; growth-arrested cells,significantly stimulated
same,45Ca release from prelabeled calvariae,neonatal mouse calvariae [3],no significant change
same,[3H]-thymidine incorporation,neonatal mouse calvariae [4],significantly increased
same,Bone Area,adult mouse calvariae; [5],0.128
same,Eroded Pm,adult mouse calvariae; [5],0.67
same,Number of Obs,adult mouse calvariae; [5],105
same,Number of Ocs,adult mouse calvariae; [5],5.0
same,Ob Perimeter,adult mouse calvariae; [5],0.33
same,Oc Pm,adult mouse calvariae; [5],0.15
same,Osteoid Area,adult mouse calvariae; [5],0.0032
same,Periosteal Area,adult mouse calvariae; [5],0.012
same,Periosteal Area,adult mouse calvariae; P=0.54,not changed
same,Bone Area,adult mouse calvariae; [6],0.114
same,Eroded Pm,adult mouse calvariae; [6],0.67
same,Number of Obs,adult mouse calvariae; [6],61
same,Number of Ocs,adult mouse calvariae; [6],4.4
same,Ob Perimeter,adult mouse calvariae; [6],0.56
same,Oc Pm,adult mouse calvariae; [6],0.12
same,Osteoid Area,adult mouse calvariae; [6],0.0012
same,Periosteal Area,adult mouse calvariae; [6],0.011
same,"indices of osteoblast activity, ratio of injected to uninjected halves of each calvaria","adult mouse calvariae; either dose of adrenomedullin, 5 daily local injections",two- to three-fold increases
same,increase of mineralized bone area,adult mouse calvariae; higher dose of adrenomedullin,13.6%
same,"eroded perimeter, upward trend, ratio of injected to uninjected",adult mouse calvariae; [7],significant
same,"resorption indices, ratio of injected to uninjected",adult mouse calvariae; [7],slight upward trends
"adrenomedullin(27-52) (AHQIYQFTDKDKDNVAPRSKISPQGY-NH2; listed as Homo sapiens) [fragment of adrenomedullin, residues 27-52, carboxyl terminal amidated]",cell number relative to control osteoblasts,[1],statistically significant increase
same,thymidine incorporation,[2],increased
